Measurements as given in patent US10336984B2, “Method of molecular stress control” (CPSI Holdings LLC, priority 2010, dated 2019).
Entries after “also recorded” stand apart in the source; their conditions may differ. Read-outs that look alike come from different tables or passages of the source.

How the values were obtained:
[1] = test system: human corneal endothelial cells (HCECs); test: Cell death populations in HCECs after cold storage (flow cytometry, fluorescence microscopy); format: cell-based
Protocol: Fluorescence Microscopy: Samples in 96-well plates were assessed for the presence of live, necrotic or apoptotic cells through triple labeling using Hoechst [81 μM], propidium iodide [9 μM], and Y oPro-1 [0.8 μM] (Molecular Probes, Eugene, Oreg.), respectively. Probes were added to samples and incubated in the dark for 20 minutes prior to imaging. To assess membrane integrity a dual label of calcein-AM [4 μM] and propidium iodide [9 μM] was utilized. Dual label probes were added to the samples and incubated for 30 minutes in the dark. All fluorescence images of labeled cells were obtained at 1, 4, 8 and 24 hours post-storage using a Zeiss Axiovert 200 fluorescent microscope with the AxioVision 4 software (Zeiss, Germany).
Flow Cytometric Analysis: Counts of the unlabeled (live), necrotic (PI [1.5 μM]) and apoptotic (YOPRO-1 [0.1 μM]) labeled cells were obtained using microfluidic flow cytometry (Millipore). Probes were added to each sample and incubated in the dark for 20 minutes prior to cell collection. Counts of cells with polarized and depolarized mitochondria (JC-1 [7.7 μM]) were also obtained via microfluidic flow cytometry. Samples were labeled, collected and analyzed at 1, 4, 8 and 24 hours post-storage. Analysis was performed using the CytoSoft 5.2 software for the Guava PCA-96 system.
Following the observation of differences in viability through the targeted modulation of the UPR, we next analyzed what effect this targeted approach has on the level and timing of cell death following hypothermic storage. HCECs were held at 4° C. for 24 hours in various solutions (CGM, HBSS, ViaSpan and OptiSol) with and without the addition of 25 μM salubrinal and assessed via microfluidic flow cytometry and fluorescence microscopy. Analysis of the apoptotic and necrotic populations was conducted to examine the effect UPR inhibition (25 μM salubrinal) had on cell death populations post-storage.

[2] = test system: rat primary hepatocytes; test: Hypothermic stress of rat primary hepatocytes with supplements; format: cell-based
Protocol: (§1) Thermal Stress Regime: Cells were seeded into 96-well tissue culture plates (13,000 cells per well) and cultured for 24 hours into a monolayer. Culture media was decanted from experimental plates and replaced with 100 μl/well of the pre-cooled (4° C.) solution (complete growth media, HBSS with calcium and magnesium, ViaSpan, or OptiSol). Cultures were maintained at 4° C. for 18 hours to 9 days. Following cold storage, the media were decanted, replaced with 100 μl/well of room temperature (˜25° C.) complete culture media and then placed into standard culture conditions (37° C., 5% CO2) for recovery and assessment.
(§2) Cell Viability Assay: To assess cell viability the metabolic activity assay, alamarBlue™ (Invitrogen) was utilized. Cell culture medium was decanted from the 96-well plates and 100 μl/well of the working alamarBlue™ solution (1:20 dilution in HBSS) was applied. Samples were then incubated for 60 minutes (±1 min) at 37° C. in the dark. The fluorescence levels were analyzed using a Tecan SPECTRAFluorPlus plate reader (TECAN, Austria GmbH). Relative fluorescence units were converted to a percentage compared to normothermic controls set at 100%. Readings were taken immediately following removal from hypothermic storage as well as 24 and 48 hours of recovery.
In FIG. 19, the C3A cells were then substituted with rat primary hepatocytes. […]

[3] = test system: human corneal endothelial cells (HCECs); test: Viability of HCECs after hypothermic storage (alamarBlue); format: cell-based; settings: for viability at 10 µM / viability at 25 µM: Homo sapiens, HCEC; for viability at 10 µM: 10 μM salubrinal; for survival difference between ViaSpan with and without tunicamycin: 3 days at 4° C.
Protocol: as §1, §2
Chemical Additions: Modulation of the UPR was accomplished through the use of salubrinal (UPR-specific inhibitor), tunicamycin (UPR-specific inducer), resveratrol, AKT, Vitamin D3, caspase and MPTP inhibitors, among others. For instance, salubrinal (EMD Chemicals Inc., Gibbstown, N.J.) was added to media at working concentrations of 10 and 25 μM immediately before utilization. Tunicamycin (EMD Chemicals Inc.) was added to ViaSpan at a working concentration of 2 ug/mL immediately prior to use. All chemicals were diluted in water, ethanol, or DMSO prior to utilization and DMSO controls were conducted to ensure no effect of the dilution vehicle.

[4] = test system: human hepatocytes; test: Hypoxic normothermic stress of hepatocytes with supplements; format: cell-based
Protocol: (§3) As an example, hepatocytes and C3A cells were placed under hypoxic conditions […] (normothermic incubation) in various commercial media with and without salubrinal or resveratrol. As with the cold thermal stress model, through the application of the current invention, preferential selection of either cell population was possible. The table in FIG. 10 summarizes the representative response of the various liver cells when placed into the two stress model conditions of thermal and hypoxic stress.
(§4) Stress Regime 2—Hypoxia: Cells were held at 37° C. in an incubator with reduced levels of O2 for a 24 hour period. Two hypoxia models were utilized including increased CO2 levels providing for an 80% air: 20% CO2 ratio (versus standard 95% air: 5% CO2) as well as limited gas exchange using isolated environmental chambers. This procedure is designed to model various intervals of suboptimal culture conditions associated with cell processing and utilization.

[5] = test system: human lung fibroblasts (IMR-90); test: Cold exposure of human lung fibroblasts (IMR-90); format: cell-based
Protocol: Preliminary studies into Unfolded Protein Response (UPR) pathways in cell death associated with cell stress has provided promising results. The UPR activator, tunicamycin, was applied in a thermal stress regime. In FIG. 5, human lung fibroblasts (IMR-90) were exposed to the cold (4° C.) in cell culture media, Viaspan (with and without tunicamycin), or ViaSpan with DMSO (carrier solution for tunicamycin). The DMSO control acts as a chemical chaperone. It was hypothesized that the addition of tunicamycin would result in an increased level of cell death following thermal stress.
With this discovery, additional studies were conducted under a more stressful thermal regime designed to completely destroy all cells. […] In subsequent studies, tunicamycin was added subsequent to (rather than during) the cold stress period and compared to samples without addition. (See FIG. 5).
FIG. 5 also depicts the viability of human lung fibroblasts (IMR-90) following two days of cold exposure with the addition of resveratrol (FR234). […] Yet, when tunicamycin is added during the recovery phase, this agent has the predicted lethal effect as described in the UPR literature.

[6] = test system: RM-9 prostate cancer cells; test: Survival of RM-9 prostate cancer cells under cryotreatment (freezing) stress; format: cell-based, mouse; settings: high doses
Text: Experiments have been completed and have expanded the scope of study to (1) include natural agents as part of the formulation and (2) target various stress pathways that may be activated in cells when they are bioprocessed. A variety of agents were used in addition to resveratrol. Of these, Vitamin D3 (i.e. calcitriol) at high doses protects the cells. […] Here, the stress regime included cryotreatment (freezing).

[7] = test system: primary human hepatocytes; test: Hypothermic stress of primary human hepatocytes with supplements; format: cell-based; settings: hypothermic exposure at 4° C.
Protocol: as §1, §2
As such, in FIG. 20, primary human hepatocytes were then subjected to the same hypothermic stress paradigm. […]

[8] = test system: human hepatoma C3A cell lines; test: C3A cells three days under optimal culture conditions with FR-234 (alamarBlue); format: cell-based; settings: highest dose, 100 μg/mL; three days at 37° C., 5% CO2
Protocol: FIG. 7 assesses the effect of the stress modulator, resveratrol (FR-234), exposure for three days under optimal culture conditions in human hepatoma C3A cell lines. In this graph, C3A cells were stored for three days under optimal culture conditions (37° C., 5% CO2) with a range of FR-234 doses. Cells were removed from storage after three days. Storage solutions were replaced with fresh culture media and viability was assessed at 1, 2, and 3 days post-storage using the metabolic activity indicator, alamarBlue.

[9] = test system: C3A, human liver cancer cells; test: Hypoxic normothermic stress of C3A cells with supplements; format: cell-based; settings: normothermic hypoxic stress regime
Protocol: as §3, §4

[10] = test system: human hepatoma (C3A); format: cell-based
Text: Samples were processed utilizing industry standard media (Roswell Park Memorial Institute, RPMI, media), cryo-protective agents and techniques. Cell survival response curves were plotted against varying concentrations of DMSO. Samples were frozen, thawed, cultured to allow for recovery, and then frozen again. This process was repeated 4 times (e.g. Freeze #1, Freeze #2, Freeze #3, Freeze #4) over experimental periods of several weeks (FIG. 8).
As the intent of cell-guard is to reduce the negative effects of stress response of cells during normothermic culture processing, a series of studies using the freeze stress model were conducted examining the potential of stress response modulation during recovery culture. The studies examined the effect of modulating the apoptotic cell death mechanism, caspase cascade, as well as mitochondrial oxidative stress pathways. While numerous studies have looked at caspase and free radical formation inhibition during stresses including freezing, no studies have been reported looking to the effect of post-processing manipulation.
As such, in FIG. 9, C3A samples were frozen using industry standard protocols in culture media+0%, 2%, 5%, and 10% DMSO. […]

`O=C(/C=C/c1ccccc1)NC(NC(=S)Nc1cccc2cccnc12)C(Cl)(Cl)Cl` (centres unmarked) [salubrinal] was tested, and the “total cell retention during hypothermic exposure” value ([1]; 25 μM salubrinal, 24 hours at 4° C.) was “increased retention of total cells”, the “levels of apoptosis, inhibited vs uninhibited” value ([1]; 25 μM salubrinal, 24 hours at 4° C., each time point) was “elevated” and the “necrotic populations, UPR inhibited vs uninhibited” value ([1]; 25 μM salubrinal, 24 hours at 4° C., normalized to normothermic control) was “similar”. The “membrane integrity and cellular attachment during recovery” value ([1]; CGM storage 24 hours, calcein-AM and propidium iodide) was “marked increase”, the “protection of rat primary hepatocytes from hypothermic stress” value ([2]; hypothermic exposure at 4° C.) was “failed to protect” and the “viability over the 48 hour recovery period” value ([3]; 24 hours at 4° C. in CGM, 25 μM salubrinal) was “retained”. The “effect of salubrinal addition on viability” value ([3]; 24 hours at 4° C. in HBSS and ViaSpan) was “no differences”, the “effect of salubrinal supplementation on viability” value ([3]; 48 hour storage in ViaSpan) was “no effect” and the viability ([3]; 48 hour storage in ViaSpan with salubrinal supplementation) was 76.7%. The “viability following 2 days of cold storage” value ([3]; CGM and OptiSol, all samples with and without salubrinal) was “complete loss in viability”, the “HCEC tolerance to stress” value ([3]; FIG. 11, 18 hours of hypothermic storage) was “improves human corneal endothelial cell (HCEC) tolerance to stress” and the “increase in cell survival” value ([3]; HCEC samples experiencing profound cold-induced failure) was 2 fold. For the same compound, the viability at 10 µM ([3]; 48 h, 2 days at 4° C. in HBSS, read-out: overall viability) was 26.9%, the viability at 25 µM ([3]; 48 h, 2 days at 4° C. in HBSS, 25 μM salubrinal, read-out: overall viability) was 37.8% and the viability at 10 µM ([3]; 24 hours at 4° C. in CGM, read-out: post-storage viability) was 23.1%. It also gave a viability at 25 µM ([3]; 24 hours at 4° C. in CGM, 25 μM salubrinal, read-out: post-storage viability) of 28%, a viability at 10 µM ([3]; 24 hours at 4° C. in OptiSol, read-out: post storage viability) of 52.3% and a viability at 25 µM ([3]; 24 hours at 4° C. in OptiSol, 25 μM salubrinal, read-out: post storage viability) of 53.9%. The “cell viability of hepatocytes” value [4] was “extended the cell viability of hepatocytes”.
For tunicamycin, the cell survival ([5]; post stress addition of tunicamycin (recovery phase)) was “reduction in cell survival”, the thermal tolerance ([5]; tunicamycin in Viaspan during cold (4° C.) exposure) was “increase in thermal tolerance” and the “effect of tunicamycin post-cold on samples exposed to resveratrol” value ([5]; two days of cold exposure) was “negating the positive effects of resveratrol”. For the same compound, the “cell survival immediately post-storage” value ([3]; 3 days at 4° C. in ViaSpan, tunicamycin 2 ug/mL, 0 hours recovery) was ~60%, the “survival difference between ViaSpan with and without tunicamycin” value ([3]; 24 hours of recovery) was 29.0% and the “survival difference between ViaSpan with and without tunicamycin” value ([3]; 48 hours post-storage) was 53.9%. For the same compound, the “HCEC survival during the recovery period” value ([3]; tunicamycin added during cold exposure) was “significant decrease in HCEC survival”.
For `C=C1/C(=C\C=C2/CCC[C@]3(C)[C@@H]([C@H](C)CCCC(C)(C)O)CC[C@@H]23)C[C@@H](O)C[C@@H]1O` [Vitamin D3, calcitriol], the “protection of cells under stress regime” value [6] was “protects cells”.
In the case of `Oc1ccc(C=Cc2cc(O)cc(O)c2)cc1` [resveratrol], the “protection of rat primary hepatocytes from hypothermic stress” value [2] was “very effectively protected”, the “effect of resveratrol on viability” value ([5]; two days of cold exposure) was “positive effects” and the “protection of human hepatocytes from cold stress / cell viability” value [7] was “able to completely protect; also recorded: extended”. For the same compound, the “cell viability of hepatocytes” value ([4]; normothermic hypoxic stress regime) was “not for hepatocytes”, the “effect on sample viability” value [8] was “profound negative effect on sample viability” and the “cell viability of C3A cells” value [9] was “extended the cell viability for C3A cells”.
With `CC(=O)N[C@@H](CS)C(=O)O` [NAC, N-Acetyl-Cysteine] the “effect on cell division in extended post-stress culture” value [10] was “no downstream negative effect on cell division” and the “overall increase in sample recovery” value ([10]; 10% DMSO condition, supplement for first 24 hours post-processing) was ~20%.
